Assays:
TET2 = TET2 (Homo sapiens (Human), UniProt Q6N021); assay: Determination of TET2 activity in cell (5-hmC dot-blot, TET2-transfected HEK293T cells); assay type: cell-based; details: 10 μM compound, HEK293T transfected with pCMV6-TET2, 48 h after transfection; in reference to vehicle, corrected with example 1 condition
Experimental: The HEK293T cell line was grown in Dulbecco's Modified Eagle Medium (DMEM) containing 10% (v/v) fetal bovine serum (FBS) and 1% (v/v) penicillin-streptomycin (P/S).
Twenty-four hours prior transfection, 3×10^6 HEK293T cells were seeded in p100 dishes previously coated with 0.001% of poly (1-lysine). One hour before transfection, a 10 μM solution of each compound was prepared in complete medium and 9 mL was added by medium replacement in one p100 dish (by duplicate). A solution of complete medium with DMSO was used as a vehicle control. Then, a transfection mix was prepared diluting 8 μg of pCMV6-TET2 expression vector (ID: RC226438, Origene) with 32 μg of polyethylenimine (PEI 25000, Polysciences, Inc.) in a 150 mM NaCl solution per p100 plate. After 15 min of incubation at rt, 1 mL of the transfection mix was added to each p100 plate. Next day, medium was replaced with a fresh diluted compound solution (10 mL/p100 dish). Forty-eight hours after transfection, cells were trypsinized and pelleted. Each pellet was suspended in 500 μL of DNA lysis buffer (50 mM Tris-HCl pH 8, 10 mM EDTA pH 8, 0.1% Triton X-100, 0.5% Tween-20, 400 μg/mL Proteinase K, 50 μg/mL RNAse), and incubated overnight at 56° C. in a thermal mixer. Next day, genomic DNA (gDNA) was extracted from each sample following a standard phenol-chloroform extraction method.
For each sample, 2 μg of gDNA was diluted in 50 μL of H2O. Then, 50 μL of 2X Denature solution (0.8 M NaOH, 20 mM EDTA) was added to each sample and incubated at 95° C. for 10 min. Samples were immediately placed on ice to cool and mixed with 100 μL of cold 2X Neutralize buffer (2 M ammonium acetate pH 7). Then, samples were incubated on ice for 10 min. DNA two-fold serial dilutions were prepared by mixing 100 μL of each sample with 100 μL of H2O in the next well, and so on. A total of 7 serial dilutions were set up. One hundred microliters of each sample and their respective dilutions were spotted on a positively charged nylon membrane (Amersham Hybond-N+, GE healthcare) in an assembled Bio-Dot apparatus (Bio-Rad). Samples were washed adding 400 μL of 0.4 M NaOH in each well. Then, blotted membrane was removed from the Bio-Dot apparatus and washed with 2×SSC buffer (0.3 M NaCl, 30 mM sodium citrate) for 5 min, air dried for 15 min, and UV-crosslinked (energy 120,000 μJ/cm^2) for 1 min. Afterwards, the blotted membrane was blocked with Blocking solution (5% non-fat milk, 0.1% Tween-20 in PBS1X) for 1 h at rt. Then, the membrane was incubated with the 5-hmC (5-hydroxymethylcytosine) primary antibody (#39769, Active Motif) diluted 1/10,000 in Blocking solution for 1 h at rt. Next, membrane was washed three times for 5 min in PBS1X and incubated with the anti-rabbit-HRP secondary antibody diluted 1/5,000 in blocking solution for 1 h at rt. Finally, the membrane was washed three times for 5 min in PBS1X, developed with SuperSignal West Pico Chemiluminescent Substrate (ThermoFisher Scientific), and exposed to autoradiography films (Fujifilm).
Each dot-blot membrane allows the evaluation of up to 6 different conditions (in duplicate) at the same time. Among these 6 different conditions there is always the condition of the vehicle and our compound of example 1, so in the end we evaluated 4 new compounds per membrane. The density intensity of each dot was quantified using the Image J software. […] Fold-change was calculated in reference to the vehicle condition and corrected with the example 1 condition for each dot-blot membrane.

HL60 cell line = assay: Antiproliferative activity on HL60 cell line (CellTiter-Glo); assay type: cell-based; details: Homo sapiens, HL-60; HL60, 72 h of treatment
Experimental: The human leukaemic cell line HL60 was grown in suspension in RPMI 1640 medium containing 10% (v/v) FBS and 1% (v/v) P/S (Life Technologies). […] Leukaemia cells were suspended at a density of 2×10^5 cells/mL in complete RPMI 1640 medium and 25 μL were seeded in each well (5×10^3 final total cells/well). A 10 μM solution of the compounds of examples 1, 12 and 21, and a 25 μM solution of all other compounds were prepared in complete medium, and then serially diluted (1:2) (as specified in Table 3 below). A solution of complete medium with DMSO was used as a vehicle control.
Twenty-five microliters of each serially diluted compound solution were added to the corresponding wells of the plate (50 μL of final volume/well). After 48 h of treatment, 50 μL of fresh 2X serially diluted compound solution was added to their corresponding wells (100 μL of final volume/well). After twenty-four additional hours, an equal volume (100 μL) of CellTiter-Glo Reagent (Promega) was added to each well, plates were shaken during 2 min and incubated at rt for 10 min. Luminescence was recorded using a Spark multimode microplate reader and an integration time of 1 s per well.

SMILES	Fold change (amount of 5-hmC) (TET2)	EC50 (HL60 cell line) [nM]	melting point [°C]
Cc1[nH]c2ccccc2c1-c1nc(NC(=O)Cc2cn3ccsc3n2)sc1C [Example 4, 2-(imidazo[2,1-b]thiazol-6-yl)-N-[5-methyl-4-(2-methyl-1H-indol-3-yl)thiazol-2-yl]acetamide]	9.2	2300	169 to 172
Cc1[nH]c2ccccc2c1-c1csc(NC(=O)Cc2c[nH]c3ccc(F)cc23)n1 [Example 12, 2-(5-fluoro-1H-indol-3-yl)-N-[4-(2-methyl-1H-indol-3-yl)thiazol-2-yl]acetamide]	16.0	497	230 to 232
Cc1[nH]c2ccccc2c1-c1csc(NC(=O)Cc2c[nH]c3ccccc23)n1 [Example 13, 2-(1H-indol-3-yl)-N-[4-(2-methyl-1H-indol-3-yl)thiazol-2-yl]acetamide]	11.6	1400	246 to 248

Continued, values first:

Fold change (amount of 5-hmC) (TET2)	EC50 (HL60 cell line) [nM]	melting point [°C]	SMILES
15.3	63	145 to 149	Cc1[nH]c2ccccc2c1-c1csc(NC(=O)Cc2c[nH]c3ccc(O)cc23)n1 [Example 21, 2-(5-hydroxy-1H-indol-3-yl)-N-[4-(2-methyl-1H-indol-3-yl)thiazol-2-yl]acetamide]
8.4	809	212 to 214	Cc1[nH]c2ccccc2c1-c1csc(NC(=O)Cc2cc(Br)cs2)n1 [Example 19, 2-(4-bromothiophen-2-yl)-N-[4-(2-methyl-1H-indol-3-yl)thiazol-2-yl]acetamide]

Source: patent US20240208998A1, “COMPOUNDS FOR USE IN THE TREATMENT OF HYPERPROLIFERATIVE DISORDERS” (FUNDACIÓ PRIVADA INSTITUT D'INVESTIGACIÓ ONCOLÓGICA DE VALL …, priority 2021, published 2024)
